In ChEMBL document CHEMBL1671626, “In vitro profiling of ceftaroline against a collection of recent bacterial clinical isolates from across the United States” (2008):
Values after ≈ are worked out from the molar mass of the structure shown.

Key:
Format in all cases: functional
Staphylococcus aureus [1] = experiment: Antibacterial activity against methicillin-resistant Staphylococcus aureus by CLSI M7-A7 broth microdilution method
Staphylococcus aureus [2] = experiment: Antibacterial activity against methicillin-resistant Staphylococcus aureus assessed as susceptible isolates by CLSI M7-A7 broth microdilution method
Staphylococcus aureus [3] = experiment: Antibacterial activity against coagulase-negative and oxacillin-susceptible Staphylococcus aureus by CLSI M7-A7 broth microdilution method
Staphylococcus aureus [4] = experiment: Antibacterial activity against coagulase-negative and oxacillin-susceptible Staphylococcus aureus assessed as resistant isolates by CLSI M7-A7 broth microdilution method
Staphylococcus aureus [5] = experiment: Antibacterial activity against coagulase-negative and oxacillin-resistant Staphylococcus aureus assessed as susceptible isolates by CLSI M7-A7 broth microdilution method
Streptococcus viridans [6] = experiment: Antibacterial activity against penicillin-nonsusceptible Streptococcus viridans by CLSI M7-A7 broth microdilution method
Enterococcus faecalis = experiment: Antibacterial activity against vancomycin-susceptible Enterococcus faecalis by CLSI M7-A7 broth microdilution method
Enterobacteriaceae [7] = experiment: Antibacterial activity against ceftazidime-susceptible Enterobacteriaceae by CLSI M7-A7 broth microdilution method
Enterobacteriaceae [8] = experiment: Antibacterial activity against ceftazidime-susceptible Enterobacteriaceae assessed as susceptible isolates by CLSI M7-A7 broth microdilution method
Enterobacteriaceae [9] = experiment: Antibacterial activity against ceftazidime-susceptible Enterobacteriaceae assessed as resistant isolates by CLSI M7-A7 broth microdilution method
Enterobacteriaceae [10] = experiment: Antibacterial activity against ceftazidime-nonsusceptible Enterobacteriaceae assessed as resistant isolates by CLSI M7-A7 broth microdilution method
Citrobacter freundii [11] = experiment: Antibacterial activity against ceftazidime-susceptible Citrobacter freundii by CLSI M7-A7 broth microdilution method
Citrobacter freundii [12] = experiment: Antibacterial activity against ceftazidime-susceptible Citrobacter freundii assessed as resistant isolates by CLSI M7-A7 broth microdilution method
Citrobacter freundii [13] = experiment: Antibacterial activity against ceftazidime-nonsusceptible Citrobacter freundii by CLSI M7-A7 broth microdilution method
Citrobacter freundii [14] = experiment: Antibacterial activity against ceftazidime-nonsusceptible Citrobacter freundii assessed as susceptible isolates by CLSI M7-A7 broth microdilution method
Citrobacter freundii [15] = experiment: Antibacterial activity against ceftazidime-nonsusceptible Citrobacter freundii assessed as resistant isolates by CLSI M7-A7 broth microdilution method
Enterobacter cloacae [16] = experiment: Antibacterial activity against ceftazidime-susceptible Enterobacter cloacae by CLSI M7-A7 broth microdilution method
Enterobacter cloacae [17] = experiment: Antibacterial activity against ceftazidime-susceptible Enterobacter cloacae assessed as resistant isolates by CLSI M7-A7 broth microdilution method
Enterobacter cloacae [18] = experiment: Antibacterial activity against ceftazidime-nonsusceptible Enterobacter cloacae assessed as resistant isolates by CLSI M7-A7 broth microdilution method
Escherichia coli [19] = experiment: Antibacterial activity against ceftazidime-susceptible Escherichia coli assessed as resistant isolates by CLSI M7-A7 broth microdilution method
Escherichia coli [20] = experiment: Antibacterial activity against ceftazidime-nonsusceptible Escherichia coli assessed as susceptible isolates by CLSI M7-A7 broth microdilution method
Escherichia coli [21] = experiment: Antibacterial activity against ceftazidime-nonsusceptible Escherichia coli assessed as resistant isolates by CLSI M7-A7 broth microdilution method
Klebsiella pneumoniae [22] = experiment: Antibacterial activity against ceftazidime-susceptible Klebsiella pneumoniae assessed as susceptible isolates by CLSI M7-A7 broth microdilution method
Klebsiella pneumoniae [23] = experiment: Antibacterial activity against ceftazidime-nonsusceptible Klebsiella pneumoniae by CLSI M7-A7 broth microdilution method
Klebsiella pneumoniae [24] = experiment: Antibacterial activity against ceftazidime-nonsusceptible Klebsiella pneumoniae assessed as susceptible isolates by CLSI M7-A7 broth microdilution method
Klebsiella pneumoniae [25] = experiment: Antibacterial activity against ceftazidime-nonsusceptible Klebsiella pneumoniae assessed as resistant isolates by CLSI M7-A7 broth microdilution method
Morganella morganii = experiment: Antibacterial activity against ceftazidime-susceptible Morganella morganii assessed as susceptible isolates by CLSI M7-A7 broth microdilution method
Proteus mirabilis [26] = experiment: Antibacterial activity against ceftazidime-susceptible Proteus mirabilis assessed as susceptible isolates by CLSI M7-A7 broth microdilution method
Proteus mirabilis [27] = experiment: Antibacterial activity against ceftazidime-susceptible Proteus mirabilis assessed as resistant isolates by CLSI M7-A7 broth microdilution method
Serratia marcescens = experiment: Antibacterial activity against ceftazidime-susceptible Serratia marcescens assessed as susceptible isolates by CLSI M7-A7 broth microdilution method
Acinetobacter = experiment: Antibacterial activity against multidrug-resistant Acinetobacter assessed as resistant isolates by CLSI M7-A7 broth microdilution method
Haemophilus influenzae [28] = experiment: Antibacterial activity against beta lactamase-negative Haemophilus influenzae by CLSI M7-A7 broth microdilution method
Haemophilus influenzae [29] = experiment: Antibacterial activity against beta lactamase-positive Haemophilus influenzae by CLSI M7-A7 broth microdilution method
Pasteurella multocida [30] = experiment: Antibacterial activity against Pasteurella multocida by CLSI M7-A7 broth microdilution method
Providencia sp. [31] = experiment: Antibacterial activity against ceftazidime-susceptible Providencia sp. by CLSI M7-A7 broth microdilution method
Providencia sp. [32] = experiment: Antibacterial activity against ceftazidime-susceptible Providencia sp. assessed as resistant isolates by CLSI M7-A7 broth microdilution method
Streptococcus pneumoniae [33] = experiment: Antibacterial activity against penicillin-susceptible Streptococcus pneumoniae assessed as susceptible isolates by CLSI M7-A7 broth microdilution method
Streptococcus pneumoniae [34] = experiment: Antibacterial activity against penicillin-resistant Streptococcus pneumoniae assessed as resistant isolates by CLSI M7-A7 broth microdilution method
Streptococcus pyogenes = experiment: Antibacterial activity against erythromycin-susceptible Streptococcus pyogenes assessed as susceptible isolates by CLSI M7-A7 broth microdilution method
Streptococcus agalactiae [35] = experiment: Antibacterial activity against erythromycin-susceptible Streptococcus agalactiae assessed as susceptible isolates by CLSI M7-A7 broth microdilution method
Streptococcus agalactiae [36] = experiment: Antibacterial activity against erythromycin-nonsusceptible Streptococcus agalactiae assessed as susceptible isolates by CLSI M7-A7 broth microdilution method
Streptococcus viridans [37] = experiment: Antibacterial activity against penicillin-susceptible Streptococcus viridans assessed as susceptible isolates by CLSI M7-A7 broth microdilution method
Streptococcus viridans [38] = experiment: Antibacterial activity against penicillin-susceptible Streptococcus viridans assessed as resistant isolates by CLSI M7-A7 broth microdilution method
Streptococcus viridans [39] = experiment: Antibacterial activity against penicillin-nonsusceptible Streptococcus viridans assessed as susceptible isolates by CLSI M7-A7 broth microdilution method
Pasteurella multocida [40] = experiment: Antibacterial activity against Pasteurella multocida assessed as susceptible isolates by CLSI M7-A7 broth microdilution method

## CC(C)(O/N=C(\C(=O)N[C@@H]1C(=O)N2C(C(=O)[O-])=C(C[n+]3ccccc3)CS[C@H]12)c1csc(N)n1)C(=O)O [CEFTAZIDIME]
Staphylococcus aureus [1]
  MIC50: 32 µg/mL (≈ 58.5 µM)
  MIC90: > 32 µg/mL
Staphylococcus aureus [2]
  Activity: 11%
Staphylococcus aureus [3]
  MIC50: 4 µg/mL (≈ 7.32 µM)
  MIC90: 8 µg/mL (≈ 14.6 µM)
Staphylococcus aureus [4]
  Activity: 0.5%
Staphylococcus aureus [5]
  Activity: 10%
Streptococcus viridans [6]
  MIC50: 8 µg/mL (≈ 14.6 µM)
  MIC90: > 32 µg/mL
Enterococcus faecalis
  MIC: > 32 µg/mL
  MIC50: > 32 µg/mL
  MIC90: > 32 µg/mL
Enterobacteriaceae [7]
  MIC50: 0.12 µg/mL (≈ 0.22 µM)
  MIC90: 0.5 µg/mL (≈ 0.915 µM)
Enterobacteriaceae [8]
  Activity: 100%
Enterobacteriaceae [9]
  Activity: 0%
Enterobacteriaceae [10]
  Activity: 90%
Citrobacter freundii [11]
  MIC50: 0.25 µg/mL (≈ 0.457 µM)
  MIC90: 1 µg/mL (≈ 1.83 µM)
Citrobacter freundii [12]
  Activity: 0%
Citrobacter freundii [13]
  MIC50: > 32 µg/mL
  MIC90: > 32 µg/mL
Citrobacter freundii [14]
  Activity: 0%
Citrobacter freundii [15]
  Activity: 97%
Enterobacter cloacae [16]
  MIC50: 0.25 µg/mL (≈ 0.457 µM)
  MIC90: 1 µg/mL (≈ 1.83 µM)
Enterobacter cloacae [17]
  Activity: 0%
Enterobacter cloacae [18]
  Activity: 91.4%
Escherichia coli [19]
  Activity: 0%
Escherichia coli [20]
  Activity: 0%
Escherichia coli [21]
  Activity: 87.3%
Klebsiella pneumoniae [22]
  Activity: 100%
Klebsiella pneumoniae [23]
  MIC50: > 32 µg/mL
  MIC90: > 32 µg/mL
Klebsiella pneumoniae [24]
  Activity: 0%
Klebsiella pneumoniae [25]
  Activity: 98.5%
Morganella morganii
  Activity: 100%
Proteus mirabilis [26]
  Activity: 100%
Proteus mirabilis [27]
  Activity: 0%
Serratia marcescens
  Activity: 100%
Acinetobacter
  Activity: 93.8%
Haemophilus influenzae [28]
  MIC50: 0.06 µg/mL (≈ 0.11 µM)
  MIC90: 0.12 µg/mL (≈ 0.22 µM)
Haemophilus influenzae [29]
  MIC50: 0.06 µg/mL (≈ 0.11 µM)
  MIC90: 0.12 µg/mL (≈ 0.22 µM)
Pasteurella multocida [30]
  MIC: ≤ 1 µg/mL
  MIC50: ≤ 1 µg/mL
  MIC90: ≤ 1 µg/mL
Providencia sp. [31]
  MIC50: 0.25 µg/mL (≈ 0.457 µM)
  MIC90: 4 µg/mL (≈ 7.32 µM)
Providencia sp. [32]
  Activity: 0%

## CO/N=C(\C(=O)N[C@@H]1C(=O)N2C(C(=O)O)=C(CSc3nc(=O)c(O)nn3C)CS[C@H]12)c1csc(N)n1 [CEFTRIAXONE]
Staphylococcus aureus [1]
  MIC50: 16 µg/mL (≈ 28.9 µM)
  MIC90: > 32 µg/mL
Staphylococcus aureus [2]
  Activity: 14.2%
Staphylococcus aureus [3]
  MIC50: 1 µg/mL (≈ 1.8 µM)
  MIC90: 4 µg/mL (≈ 7.21 µM)
Staphylococcus aureus [4]
  Activity: 0%
Staphylococcus aureus [5]
  Activity: 27.1%
Streptococcus pneumoniae [33]
  Activity: 100%
Streptococcus pneumoniae [34]
  Activity: 6.8%
Streptococcus pyogenes
  Activity: 100%
Streptococcus agalactiae [35]
  Activity: 100%
Streptococcus agalactiae [36]
  Activity: 97.6%
Streptococcus viridans [37]
  Activity: 100%
Streptococcus viridans [38]
  Activity: 0%
Streptococcus viridans [6]
  MIC50: 2 µg/mL (≈ 3.61 µM)
  MIC90: 8 µg/mL (≈ 14.4 µM)
Streptococcus viridans [39]
  Activity: 28.6%
Enterococcus faecalis
  MIC50: > 32 µg/mL
  MIC90: > 32 µg/mL
Enterobacteriaceae [7]
  MIC50: ≤ 0.06 µg/mL
  MIC90: 0.25 µg/mL (≈ 0.451 µM)
Enterobacteriaceae [8]
  Activity: 98%
Enterobacteriaceae [9]
  Activity: 0%
Enterobacteriaceae [10]
  Activity: 0%
Citrobacter freundii [11]
  MIC50: 0.12 µg/mL (≈ 0.216 µM)
  MIC90: 0.5 µg/mL (≈ 0.902 µM)
Citrobacter freundii [12]
  Activity: 0%
Citrobacter freundii [13]
  MIC50: > 16 µg/mL
  MIC90: > 16 µg/mL
Citrobacter freundii [14]
  Activity: 6.1%
Citrobacter freundii [15]
  Activity: 0%
Enterobacter cloacae [16]
  MIC50: 0.12 µg/mL (≈ 0.216 µM)
  MIC90: 1 µg/mL (≈ 1.8 µM)
Enterobacter cloacae [17]
  Activity: 0%
Enterobacter cloacae [18]
  Activity: 0%
Escherichia coli [19]
  Activity: 0%
Escherichia coli [20]
  Activity: 9.5%
Escherichia coli [21]
  Activity: 0%
Klebsiella pneumoniae [22]
  Activity: 99.5%
Klebsiella pneumoniae [23]
  MIC50: > 16 µg/mL
  MIC90: > 16 µg/mL
Klebsiella pneumoniae [24]
  Activity: 12.1%
Klebsiella pneumoniae [25]
  Activity: 0%
Morganella morganii
  Activity: 100%
Proteus mirabilis [26]
  Activity: 96.6%
Proteus mirabilis [27]
  Activity: 0%
Serratia marcescens
  Activity: 93.2%
Acinetobacter
  Activity: 0%
Haemophilus influenzae [28]
  MIC: ≤ 0.06 µg/mL
  MIC50: ≤ 0.06 µg/mL
  MIC90: ≤ 0.06 µg/mL
Haemophilus influenzae [29]
  MIC: ≤ 0.06 µg/mL
  MIC50: ≤ 0.06 µg/mL
  MIC90: ≤ 0.06 µg/mL
Pasteurella multocida [30]
  MIC: ≤ 0.015 µg/mL
  MIC50: ≤ 0.015 µg/mL
  MIC90: ≤ 0.015 µg/mL
Pasteurella multocida [40]
  Activity: 100%
Providencia sp. [31]
  MIC: ≤ 0.06 µg/mL
  MIC50: ≤ 0.06 µg/mL
  MIC90: 2 µg/mL (≈ 3.61 µM)
Providencia sp. [32]
  Activity: 0%
